Test results from patent US8980254B2, “Formulation for oral administration of proteins” (Alvine Pharmaceuticals, Inc., priority 2008, dated 2015).
Entries after “also recorded” stand apart in the source; their conditions may differ.

What was measured:
Format in all cases: biochemical, barley
ALV001 [1] = target: T1, ALV001 (Hordeum vulgare, UniProt P25250); assay: Stabilization of ALV001 in ex vivo postprandial gastric fluid by added antioxidants/reducing/chelating agents (chromogenic activity); parameters: ALV001 is the proenzyme or zymogen for Endoprotease B (Isoform 2); made in house; conditions: for stability of ALV001 activity with agent added (FIG. 6): 15 minute postprandial gastric fluid, 37° C., 1.5-45 minutes; for stabilization (preservation of activity) of ALV001 in ex vivo gastric fluid: summary statement, concentration not given
Procedure: (§1) Frozen human postprandial gastric fluids were thawed and centrifuged at 21,000 g for 5 minutes to pellet insoluble material, and the supernatant was used for this example. Between 50 and 200 μl of gastric fluid were added to the wells of a 96-well plate and incubated at 37° C. When antioxidants were added, they were added at this step. […] At the specified sampling time, a 1.6 μl sample of gastric fluid was diluted in assay buffer to give a final volume of 280 μl, and the concentration was measured by a chromogenic activity assay using Z-Phe-Arg-p-nitroaniline (pNA) as the substrate. The method is based on the ability of pNA to absorb at 410 nm when released from the substrate. ALV001 is the proenzyme or zymogen for Endoprotease B (Isoform 2) that cleaves the C-terminal side of the arginine in the sequence Phe-Arg. Enzymatic cleavage and subsequent release of pNA may be monitored by the change in absorbance at 410 nm. To determine the reaction rate, the absorbance at 410 nm was measured every 10 seconds for 1 minute. The slope of the regression line divided by the enzyme concentration was the reported enzyme activity.
A control without MTG was also included.
Shown in FIG. 6, selected reducing agents were added at 5 mM to ex vivo postprandial gastric fluid that was obtained from a healthy volunteer 15 minutes after eating and was incubated at 37° C. The proenzyme ALV001 was added to the gastric fluid. Acetate buffer at pH 4.5 was used as a control, because ALV001 is fully activated under these conditions. Samples were taken to determine ALV001 activity after 1.5, 5, 10, 20, […].
Samples were taken at 1.5, 5, 10, 20, and 40 minutes.
Target sequence in this assay (P25250 29-373 limits assumed): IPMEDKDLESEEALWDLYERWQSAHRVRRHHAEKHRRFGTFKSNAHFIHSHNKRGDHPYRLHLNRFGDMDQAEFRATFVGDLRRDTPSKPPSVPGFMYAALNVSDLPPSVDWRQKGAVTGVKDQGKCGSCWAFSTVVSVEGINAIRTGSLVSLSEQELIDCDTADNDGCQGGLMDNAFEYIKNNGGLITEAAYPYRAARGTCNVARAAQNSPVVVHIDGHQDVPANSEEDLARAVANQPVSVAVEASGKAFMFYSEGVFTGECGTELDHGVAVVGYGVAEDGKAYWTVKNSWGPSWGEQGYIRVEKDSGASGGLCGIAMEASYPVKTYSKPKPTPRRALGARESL

ALV001 [2] = target: T1, ALV001; assay: Stabilization of ALV001* in early postprandial gastric fluid by reducing agents; parameters: ALV001*(the active form of ALV001) is produced upon proteolytic cleavage of ALV001; made in house
Procedure: as §1
Target sequence in this assay (P25250 134-373): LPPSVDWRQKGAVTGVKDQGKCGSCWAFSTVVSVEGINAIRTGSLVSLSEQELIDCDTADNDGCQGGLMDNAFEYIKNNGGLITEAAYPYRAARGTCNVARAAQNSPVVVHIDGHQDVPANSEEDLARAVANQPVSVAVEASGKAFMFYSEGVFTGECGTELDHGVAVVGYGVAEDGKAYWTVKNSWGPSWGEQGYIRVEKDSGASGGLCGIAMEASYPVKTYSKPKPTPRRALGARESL

ALV001 [3] = target: T1, ALV001; assay: Stabilization of ALV001 in ex vivo postprandial gastric fluid by added antioxidants/reducing/chelating agents (chromogenic activity); parameters: ALV001 is the proenzyme or zymogen for Endoprotease B (Isoform 2); made in house; conditions: for stability of ALV001 in postprandial gastric fluid (FIG. 7): agent at 0.5 mM; for stabilization of ALV001 (FIG. 11): ALV001 at 0.12 mg/ml, 1.5-40 minutes
Target sequence in this assay (P25250 29-373 limits assumed): as the sequence (P25250 29-373 limits assumed) above

ALV001 [4] = target: T1, ALV001; assay: Restoration of ALV001 activity by agents added after 15 minutes incubation in postprandial gastric fluid; parameters: ALV001 is the proenzyme or zymogen for Endoprotease B (Isoform 2); made in house; conditions: agent at 5 mM added after 15 minutes at 37° C. in postprandial gastric fluid; 1.5-40 minutes after addition
Procedure: ALV001 was added to postprandial gastric fluid and incubated for 15 minutes at 37° C. Reducing agents were added at 5 mM to the gastric fluid and then samples were taken to examine ALV001 activity at 1.5, 5, 10, 20, and 40 minutes after the addition of the reducing agents.
Target sequence in this assay (P25250 29-373 limits assumed): as above

ALV001 [5] = target: T1, ALV001; assay: Reversal of loss of enzyme activity: ALV003 pre-incubated in 15 minute postprandial gastric fluid, then MTG added; parameters: ALV001*(the active form of ALV001) is produced upon proteolytic cleavage of ALV001; made in house; conditions: 50 mM MTG, approximately 20 minutes after addition to pre-incubated ALV003 in 15 minute postprandial gastric fluid
Target sequence in this assay (P25250 134-373): as the sequence (P25250 134-373) above

ALV001 [6] = target: T1, ALV001; assay: ALV001 activity under simulated postprandial gastric conditions with cysteine; parameters: ALV001 is the proenzyme or zymogen for Endoprotease B (Isoform 2); made in house; conditions: gluten-free meal chewed and spit into resting gastric fluid, ALV003 and varying levels of cysteine, simulated gastric acid secretion
Procedure: A gluten-free meal was chewed and spit into resting gastric fluid. ALV003 and varying levels of cysteine were added at time 0 and the stability of ALV001 activity was tested by monitoring chromogenic enzyme activity over time. Gastric acid secretion was simulated throughout the experiment.
A gluten-free meal was chewed and spit into resting gastric fluid. ALV003 and varying levels of cysteine were added at time 0, and the stability of ALV001 activity was measured by monitoring chromogenic enzyme activity over time. Gastric acid secretion was simulated throughout the experiment.
Target sequence in this assay (P25250 29-373 limits assumed): as the sequence (P25250 29-373 limits assumed) above

ALV001 [7] = target: T1, ALV001; assay: ALV001 activity reconstituted in orange juice with or without sodium metabisulfite; parameters: ALV001 is the proenzyme or zymogen for Endoprotease B (Isoform 2); made in house; conditions: 3 mg/ml ALV001 in orange juice, 840 μM sodium metabisulfite
Procedure: 3 mg/ml ALV001 was reconstituted in orange juice with or without 840 μM sodium metabisulfite. Chromogenic enzyme activity was measured at the indicated timepoints to determine the relative amount of functional enzyme.
3 mg/ml ALV001 was reconstituted in orange juice with or without 840 μM sodium metabisulfite. Chromogenic enzyme activity was measured as described above, at the indicated timepoints, to determine the relative amount of functional enzyme, as shown in FIG. 13.
Target sequence in this assay (P25250 29-373 limits assumed): as above

| Compound | stabilization of ALV001* in early postprandial gastric fluid (ALV001 [2]) | stability of ALV001 activity with agent added (FIG. 6) (ALV001 [1]; agent at 5 mM) | stabilization (preservation of activity) of ALV001 in ex vivo gastric fluid (ALV001 [1]) | other results |
| --- | --- | --- | --- | --- |
| O=C1O[C@H]([C@@H](O)CO)C(O)=C1O [ascorbic acid] | did not stabilize the enzyme | rapidly inactivated | did not stabilize |  |
| OCCS [2-mercaptoethanol] | demonstrated to stabilize ALV001* |  |  |  |
| O=S([O-])[O-].[Na+].[Na+] [sodium sulfite] | demonstrated to stabilize ALV001* | most effective stabilization | particularly effective in stabilizing ALV001 | concentration down to which the stabilizing effect persists (ALV001 [3]; postprandial gastric fluid (FIG. 8)): 0.05 mM; stabilization of ALV001 (FIG. 8) (ALV001 [3]; sodium sulfite time course, postprandial gastric fluid): particularly effective; restoration of ALV001 enzyme activity (ALV001 [4]): partially restored the enzyme activity |
| OCC(O)CS (centres unmarked) [MTG, monothioglycerol] |  |  |  | loss of enzymatic activity of ALV001 (FIG. 4) (ALV001 [3]; 50 mM MTG, 15 minute postprandial gastric fluid): no loss; rate of loss of enzymatic activity of ALV001 (FIG. 4) (ALV001 [3]; MTG 0.01 to 50 mM, 15 minute postprandial gastric fluid): decreased with increasing MTG concentrations; restoration of enzymatic activity of ALV001* (FIG. 5) (ALV001 [5]): nearly full enzymatic activity was restored |
| Cl.O=C(O)CCP(CCC(=O)O)CCC(=O)O [TCEP, tris(2-Carboxyethyl)phosphine hydrochloride] | demonstrated to stabilize ALV001* |  |  |  |
| O[C@H](CS)[C@H](O)CS (racemic) [dithiothreitol] | demonstrated to stabilize ALV001* |  |  |  |
| N[C@@H](CS)C(=O)O [L-cysteine] | demonstrated to stabilize ALV001* | Substantial improvements in stability |  | stability of ALV001 activity under simulated postprandial gastric conditions (FIG. 14) (ALV001 [6]): stabilizes ALV001 activity |
| O=S([O-])([O-])=S.[Na+].[Na+] [sodium thiosulfate] | demonstrated to stabilize ALV001* |  |  | stability of ALV001 in postprandial gastric fluid (FIG. 7) (ALV001 [3]): demonstrated to improve the stability of ALV001 |

Now from value to molecule, other results behind:

| stabilization of ALV001* in early postprandial gastric fluid (ALV001 [2]) | Compound | stability of ALV001 activity with agent added (FIG. 6) (ALV001 [1]; agent at 5 mM) | stabilization (preservation of activity) of ALV001 in ex vivo gastric fluid (ALV001 [1]) | other results |
| --- | --- | --- | --- | --- |
| demonstrated to stabilize ALV001* | O=C(O)CCCC[C@@H]1CCSS1 (racemic) [lipoic acid] |  |  | stability of ALV001 in postprandial gastric fluid (FIG. 7) (ALV001 [1]; agent at 5 mM): demonstrated to improve the stability of ALV001 |
| did not stabilize the enzyme | CSCC[C@H](N)C(=O)O [L-methionine] |  | did not stabilize |  |
| demonstrated to stabilize ALV001* | N[C@@H](CCS)C(=O)O [homocysteine] |  |  |  |
| demonstrated to stabilize ALV001* | O=S([O-])S(=O)(=O)[O-].[Na+].[Na+] [sodium metabisulfite] |  | particularly effective in stabilizing ALV001 | stabilization of ALV001 (FIG. 11) (ALV001 [3]; agent at 25 μM, postprandial gastric fluid): considerable stabilization; stability of ALV001 (ALV001 [3]; agent at 50 μM): improved stability of ALV001; stabilization of ALV001 (FIG. 11) (ALV001 [3]; agent at 50 μM, postprandial gastric fluid): best stabilization; stability of ALV001 in postprandial gastric fluid (FIG. 7) (ALV001 [3]): demonstrated to improve the stability of ALV001; stability of ALV001 activity in orange juice (FIG. 13) (ALV001 [7]): stabilizes ALV001 activity; also recorded: increased stability |
| demonstrated to stabilize ALV001* | CC(=O)N[C@@H](CS)C(=O)O [N-acetylcysteine] | Substantial improvements in stability |  | restoration of ALV001 enzyme activity (ALV001 [4]): partially restored the enzyme activity |
